Laboratory results reported in patent US4048334A, “Active derivatives of methylamino in therapeutic compositions and methods of use” (priority 1974, dated 1977).

How the values were obtained:
[1] = system: reserpine-induced catatonia; experiment: Inhibition of reserpine-induced catatonia; format: in vivo, rat (male, OFA strain); settings: for Inhibition of reserpine-induced catatonia: 30 min before reserpine
Experimental: 1. Inhibition of reserpine-induced catatonia
After sufficient doses of reserpine have been administered to the rat, a series of symptoms occur, more particularly ptosis, catatonia and a drop in central temperature. These symptoms are caused by the depletion of the intragranular reserve pool of boigenetic amines at the synaptic terminals.
An oral dose of the compound to be studied in aqueous solution was administered to batches of 10 male rats of the OFA strain weighing about 150 to 200 g. Thirty minutes later a dose of 5 mg/kg of reserpine was given by intraperitoneal route. Three hours after the injection of reserpine, the animals were suspended by the four paws to a horizontally stretched wire fixed at 15 cm from the ground. The catatonic animals were those which maintained the position so given for at least 30 seconds. […] The maximum score was therefore 10 per batch. An identical trial was undertaken with control animals which received reserpine but none of the compounds being studied.

[2] = system: neuroleptic-induced catatonia; experiment: Inhibition of neuroleptic-induced catatonia (prochlorperazine); format: in vivo, rat (male, OFA strain); settings: for Inhibition of the neuroleptic-induced catatonia: 30 min before prochlorperazine; for activity compared with amantadine, neuroleptic-induced catatonia: versus amantadine
Experimental: 2. Inhibition of neuroleptic-induced catatonia
The blocking of dopaminergic receptors by neuroleptics in the extra-pyramidal system induces catatonia in the rat. Catatonia is differentiated from sedative properties by means of the test used hereabove for reserpine-induced catatonia. The same system of scoring was also employed in the present case.
An oral dose of the compound to be studied in aqueous solution was administered to batches of 10 male rats of the OFA strain weighing about 150 to 200 g. […] Three hours after the injection of this latter compound, catatonia was measured. An identical trial was also carried out with control animals which received prochlorperazine but none of the compounds under study.
The scoring system, used was that given hereabove in Table I.

Question: Which “Inhibition of reserpine-induced catatonia” value ([1]; 25 mg/kg oral) does the source give for `CCCCC(C)CC(C)(C)N` (stereo not drawn) [Compound 13, 1,1,3-Trimethyl-n-heptylamine] here?
Answer: 1 (20 to 30% inhibition of catatonia in comparison with the controls (namely a score of 7 to 8 per studied batch))

Question: What about the “Inhibition of the neuroleptic-induced catatonia” value ([2]; 50 mg/kg oral) of the same molecule?
Answer: 1 (20 to 30% inhibition of catatonia in comparison with the controls (namely a score of 7 to 8 per studied batch))

Question: With `CCCC(N)(CCC)CC(C)C` [Compound 5, 1-n-Propyl-1-isobutyl-n-butylamine] as the molecule, how does the “Inhibition of reserpine-induced catatonia” value ([1]; 20 mg/kg oral) read?
Answer: 2 (50% inhibition of catationia in comprison with the controls (namely a score of 5 per studied batch))

Question: What about the “Inhibition of the neuroleptic-induced catatonia” value ([2]; 20 mg/kg oral) of the same molecule?
Answer: 4 (100% inhibition of catatonia in comparison with the controls (namely a score of 0 per studied batch))

Question: What about the “activity compared with amantadine, neuroleptic-induced catatonia” value [2] of the same molecule?
Answer: five times more active than amantadine

Question: Which results are given for `CCC=CC(N)(CCC)CCC` [Compound 25, 1,1-Di-n-propyl-2-penten-1-ylamine]?
Answer: Inhibition of reserpine-induced catatonia ([1]; 6 mg/kg oral): 3 (70 to 80% inhibition of catatonia in comparison with the controls (namely a score of 2 or 3 per studied batch)); Inhibition of the neuroleptic-induced catatonia ([2]; 6 mg/kg oral): 3 (70 to 80% inhibition of catatonia in comparison with the controls (namely a score of 2 or 3 per studied batch))

Question: For `CCCCC(N)(CC)CCC` (stereo not drawn) [Compound 4, 1-Ethyl-1-n-propyl-n-pentylamine], which “Inhibition of reserpine-induced catatonia” value ([1]; 20 mg/kg oral) is on record?
Answer: 3 (70 to 80% inhibition of catatonia in comparison with the controls (namely a score of 2 or 3 per studied batch))

Question: What about the “Inhibition of the neuroleptic-induced catatonia” value ([2]; 20 mg/kg oral) of the same molecule?
Answer: 3 (70 to 80% inhibition of catatonia in comparison with the controls (namely a score of 2 or 3 per studied batch))

Question: For `CCCC(N)(CC)CC` [Compound 14, 1,1-Diethyl-n-butylamine], which “Inhibition of reserpine-induced catatonia” value ([1]; 50 mg/kg oral) is on record?
Answer: 3 (70 to 80% inhibition of catatonia in comparison with the controls (namely a score of 2 or 3 per studied batch))

Question: What about the “Inhibition of the neuroleptic-induced catatonia” value ([2]; 50 mg/kg oral) of the same molecule?
Answer: 3 (70 to 80% inhibition of catatonia in comparison with the controls (namely a score of 2 or 3 per studied batch))

Question: `C=CCC(N)(CC=C)CC=C` [Compound 11, 1,1-Di-(2-propen-1-yl)-3-buten-1-ylamine] was tested. Which “Inhibition of reserpine-induced catatonia” value ([1]; 20 mg/kg oral) did it give?
Answer: 1 (20 to 30% inhibition of catatonia in comparison with the controls (namely a score of 7 to 8 per studied batch))

Question: And the “Inhibition of the neuroleptic-induced catatonia” value ([2]; 20 mg/kg oral)?
Answer: 1 (20 to 30% inhibition of catatonia in comparison with the controls (namely a score of 7 to 8 per studied batch))

Question: How did the “Inhibition of reserpine-induced catatonia” value ([1]; 30 mg/kg oral) turn out when `C#CC(N)(CCC)CCC` [Compound 21, 1,1-Di-n-propyl-2-propyn-1-ylamine] was run?
Answer: 2 (50% inhibition of catationia in comprison with the controls (namely a score of 5 per studied batch))

Question: And the “Inhibition of the neuroleptic-induced catatonia” value ([2]; 30 mg/kg oral)?
Answer: 1 (20 to 30% inhibition of catatonia in comparison with the controls (namely a score of 7 to 8 per studied batch))

Question: For `CCCC(C)CC(C)(N)CC` (stereo not drawn) [Compound 7, 1,3-Dimethyl-1-ethyl-n-hexylamine], which “Inhibition of reserpine-induced catatonia” value ([1]; 20 mg/kg oral) is on record?
Answer: 1 (20 to 30% inhibition of catatonia in comparison with the controls (namely a score of 7 to 8 per studied batch))

Question: What about the “Inhibition of the neuroleptic-induced catatonia” value ([2]; 40 mg/kg oral) of the same molecule?
Answer: 1 (20 to 30% inhibition of catatonia in comparison with the controls (namely a score of 7 to 8 per studied batch))

Question: Which “score, reserpine-induced catatonia” value ([1]; 3 mg/kg) does the source give for `CCCC(N)(CCC)CCC` here?
Answer: 4 (100% inhibition of catatonia in comparison with the controls (namely a score of 0 per studied batch))

Question: And the “score, neuroleptic-induced catatonia” value ([2]; 3 mg/kg)?
Answer: 4 (100% inhibition of catatonia in comparison with the controls (namely a score of 0 per studied batch))

Question: With `CCCC(N)(CCC)C(C)(C)C` [Compound 20, 1-n-Propyl-1-tert-butyl-n-butylamine] as the molecule, how does the “Inhibition of reserpine-induced catatonia” value ([1]; 6 mg/kg oral) read?
Answer: 2 (50% inhibition of catationia in comprison with the controls (namely a score of 5 per studied batch))

Question: And the “Inhibition of the neuroleptic-induced catatonia” value ([2]; 50 mg/kg oral)?
Answer: 1 (20 to 30% inhibition of catatonia in comparison with the controls (namely a score of 7 to 8 per studied batch))

Question: `CCCCC(C)(N)CC(C)C` (stereo not drawn) [Compound 8, 1-Methyl-1-isobutyl-n-pentylamine] was tested. Which “Inhibition of reserpine-induced catatonia” value ([1]; 20 mg/kg oral) did it give?
Answer: 1 (20 to 30% inhibition of catatonia in comparison with the controls (namely a score of 7 to 8 per studied batch))

Question: What about the “Inhibition of the neuroleptic-induced catatonia” value ([2]; 50 mg/kg oral) of the same molecule?
Answer: 4 (100% inhibition of catatonia in comparison with the controls (namely a score of 0 per studied batch))

Question: And the “activity compared with amantadine, neuroleptic-induced catatonia” value [2]?
Answer: twice as active

Question: `CCCC(CC)CC(C)(C)N` (stereo not drawn) [Compound 17, 1,1-Dimethyl-3-ethyl-n-hexylamine] was tested. Which “Inhibition of reserpine-induced catatonia” value ([1]; 11 mg/kg oral) did it give?
Answer: 1 (20 to 30% inhibition of catatonia in comparison with the controls (namely a score of 7 to 8 per studied batch))

Question: And the “Inhibition of the neuroleptic-induced catatonia” value ([2]; 11 mg/kg oral)?
Answer: 2 (50% inhibition of catationia in comprison with the controls (namely a score of 5 per studied batch))

Question: With `CCCC(N)(CC)CC(C)C` (stereo not drawn) [Compound 3, 1-Ethyl-1-isobutyl-n-butylamine] as the molecule, how does the “Inhibition of reserpine-induced catatonia” value ([1]; 20 mg/kg oral) read?
Answer: 3 (70 to 80% inhibition of catatonia in comparison with the controls (namely a score of 2 or 3 per studied batch))

Question: And the “Inhibition of the neuroleptic-induced catatonia” value ([2]; 20 mg/kg oral)?
Answer: 3 (70 to 80% inhibition of catatonia in comparison with the controls (namely a score of 2 or 3 per studied batch))

Question: For `C#CCC(N)(CCC)CCC` [Compound 26, 1,1-Di-n-propyl-3-butyn-1-ylamine], which “Inhibition of reserpine-induced catatonia” value ([1]; 30 mg/kg oral) is on record?
Answer: 1 (20 to 30% inhibition of catatonia in comparison with the controls (namely a score of 7 to 8 per studied batch))

Question: What about the “Inhibition of the neuroleptic-induced catatonia” value ([2]; 30 mg/kg oral) of the same molecule?
Answer: 4 (100% inhibition of catatonia in comparison with the controls (namely a score of 0 per studied batch))

Question: Which results are given for `CCC(N)(CC)CC` [Compound 15, 1,1-Diethyl-n-propylamine]?
Answer: Inhibition of reserpine-induced catatonia ([1]; 50 mg/kg oral): 1 (20 to 30% inhibition of catatonia in comparison with the controls (namely a score of 7 to 8 per studied batch)); Inhibition of the neuroleptic-induced catatonia ([2]; 50 mg/kg oral): 3 (70 to 80% inhibition of catatonia in comparison with the controls (namely a score of 2 or 3 per studied batch))

Question: Which results are given for `CCC#CC(N)(CC)CC` [Compound 22, 1,1-Diethyl-2-pentyn-1-ylamine]?
Answer: Inhibition of reserpine-induced catatonia ([1]; 60 mg/kg oral): 1 (20 to 30% inhibition of catatonia in comparison with the controls (namely a score of 7 to 8 per studied batch)); Inhibition of the neuroleptic-induced catatonia ([2]; 30 mg/kg oral): 1 (20 to 30% inhibition of catatonia in comparison with the controls (namely a score of 7 to 8 per studied batch))

Question: `CCC#CC(N)(CCC)CCC` [Compound 24, 1,1-Di-n-propyl-2-pentyn-1-ylamine] was tested. Which “Inhibition of reserpine-induced catatonia” value ([1]; 20 mg/kg oral) did it give?
Answer: 1 (20 to 30% inhibition of catatonia in comparison with the controls (namely a score of 7 to 8 per studied batch))

Question: What about the “Inhibition of the neuroleptic-induced catatonia” value ([2]; 20 mg/kg oral) of the same molecule?
Answer: 2 (50% inhibition of catationia in comprison with the controls (namely a score of 5 per studied batch))

Question: `CCC=CC(N)(CC)CC` [Compound 23, 1,1-Diethyl-2-penten-1-ylamine] was tested. Which “Inhibition of reserpine-induced catatonia” value ([1]; 60 mg/kg oral) did it give?
Answer: 1 (20 to 30% inhibition of catatonia in comparison with the controls (namely a score of 7 to 8 per studied batch))

Question: What about the “Inhibition of the neuroleptic-induced catatonia” value ([2]; 30 mg/kg oral) of the same molecule?
Answer: 1 (20 to 30% inhibition of catatonia in comparison with the controls (namely a score of 7 to 8 per studied batch))

Question: For `CCCC(N)(CC(C)C)CC(C)C` [Compound 18, 1,1-Diisobutyl-n-butylamine], which “Inhibition of reserpine-induced catatonia” value ([1]; 12 mg/kg oral) is on record?
Answer: 2 (50% inhibition of catationia in comprison with the controls (namely a score of 5 per studied batch))

Question: And the “Inhibition of the neuroleptic-induced catatonia” value ([2]; 12 mg/kg oral)?
Answer: 1 (20 to 30% inhibition of catatonia in comparison with the controls (namely a score of 7 to 8 per studied batch))

Question: With `CCCC(N)(CCC)C(C)C` [Compound 19, 1-n-Propyl-1-isopropyl-n-butylamine] as the molecule, how does the “Inhibition of reserpine-induced catatonia” value ([1]; 6 mg/kg oral) read?
Answer: 3 (70 to 80% inhibition of catatonia in comparison with the controls (namely a score of 2 or 3 per studied batch))

Question: What about the “Inhibition of the neuroleptic-induced catatonia” value ([2]; 6 mg/kg oral) of the same molecule?
Answer: 3 (70 to 80% inhibition of catatonia in comparison with the controls (namely a score of 2 or 3 per studied batch))
